The target in one assay is T1, CDK9/CyclinT1 (Homo sapiens, UniProt P50750).
T1 construct: Recombinant full-length His-tagged human CDK9 and CycT1; His-tag; purchased Life Technologies PV4131; host or cells: insect cells
The experiment in a line: CDK9/CycT1 high ATP kinase assay (TR-FRET). In kind it is biochemical. To be noted: 2 mM ATP (high ATP); median; read-out: CDK9/CyclinT1, 2 mM ATP (high ATP) IC50 - [mol/l] (median). The method in brief: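 Full-length His-tagged human CDK9/CycT1 (insect cell) at ~0.5 µg/mL, preincubated with compound 15 min at 22 °C in Tris pH 8.0 buffer, then reacted 25 min with 2 mM ATP and 0.75 µM biotinylated peptide (final). Phospho-substrate detected by TR-FRET (anti-RB pSer807/811, Eu/XL665), 665/620 nm ratio normalised to no-inhibitor and no-enzyme controls.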
(In TR-FRET formats the signal depends on donor and acceptor labels being close together.)

Assay [1] has as its system BRCA1 mRNA expression in MDA-MB-231 cells. The experiment in a line: qRT-PCR assay: inhibition of BRCA1 mRNA expression in MDA-MB-231 cells. The note with it: Homo sapiens, MDA-MB-231, 24 h, 24 h exposure, BRCA1 mRNA normalised to GAPDH, median, read-out: RTqPCR-MDA-MB-231 IC50 [mol/l] BRCA1 (median). The format is cell-based, human. On the procedure: 3. qRT-PCR Assay: BRCA1, ATR, MCL1 in MDA-MB-231, CAL-120
Tissue cultured human MDA-MB-231 human breast cancer cells were plated in 500 microL per well at 200,000 cells/well in a 24 well microtiter plate. After 24 h, the cells were exposed continuously for 24 h to test substances (substances were added with Tecan HP D300 Dispenser). RNA was prepared using Qiagen RNeasy MiniKit (#74106), RNA was quantified using a NanoDrop Equipment, and 600 nano gamms of RNA was coverted to cDNA using a SuperScript VILO kit (Thermofisher #11755050) followed by qPCR amplification. BRCA1 and ATR gene expression was measured by RT-qPCR and normalised to GAPDH housekeeping gene expression. qPCR primer sets have been purchased from Thermo Fisher Scientific/Applied Biosystems: BRCA1, # Hs 01556193; ATR, #Hs 00992123; GAPDH, #Hs 03929097.
A general note: In qPCR the cycle at which signal appears reflects the starting amount.

Assay [2] deals with CAL-120 human breast adenocarcinoma cells. Nature of the assay: Proliferation assay CAL-120 (crystal violet). The format is cell-based. The note with it: Homo sapiens, CAL-120, 96 h, CAL-120 cells, 4 days, median, read-out: Prolif-CAL-120— IC50 - [mol/l] (median). In short, it runs like this: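 Cells seeded at 4,000/well in medium with 10% fetal calf serum, dosed after 24 h (0.01-10 micromol/L, 0.1% DMSO) and grown 4 days. Crystal violet staining read at 595 nm, normalised to zero-point plate (0%) and untreated cells (100%); IC50 by 4-parameter fit.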

Some results are limits rather than exact numbers.

T1 sequence (P50750 whole entry): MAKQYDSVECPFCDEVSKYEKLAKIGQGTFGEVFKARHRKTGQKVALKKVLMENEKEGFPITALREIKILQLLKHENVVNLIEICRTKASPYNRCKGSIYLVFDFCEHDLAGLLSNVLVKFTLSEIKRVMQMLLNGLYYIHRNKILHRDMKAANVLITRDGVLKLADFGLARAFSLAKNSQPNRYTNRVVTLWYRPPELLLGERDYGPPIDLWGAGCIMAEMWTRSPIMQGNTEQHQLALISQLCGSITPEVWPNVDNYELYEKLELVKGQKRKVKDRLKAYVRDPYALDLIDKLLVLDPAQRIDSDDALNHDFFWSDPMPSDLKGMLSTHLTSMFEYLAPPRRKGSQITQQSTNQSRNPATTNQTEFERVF
T1 sequence (O60563 whole entry partner): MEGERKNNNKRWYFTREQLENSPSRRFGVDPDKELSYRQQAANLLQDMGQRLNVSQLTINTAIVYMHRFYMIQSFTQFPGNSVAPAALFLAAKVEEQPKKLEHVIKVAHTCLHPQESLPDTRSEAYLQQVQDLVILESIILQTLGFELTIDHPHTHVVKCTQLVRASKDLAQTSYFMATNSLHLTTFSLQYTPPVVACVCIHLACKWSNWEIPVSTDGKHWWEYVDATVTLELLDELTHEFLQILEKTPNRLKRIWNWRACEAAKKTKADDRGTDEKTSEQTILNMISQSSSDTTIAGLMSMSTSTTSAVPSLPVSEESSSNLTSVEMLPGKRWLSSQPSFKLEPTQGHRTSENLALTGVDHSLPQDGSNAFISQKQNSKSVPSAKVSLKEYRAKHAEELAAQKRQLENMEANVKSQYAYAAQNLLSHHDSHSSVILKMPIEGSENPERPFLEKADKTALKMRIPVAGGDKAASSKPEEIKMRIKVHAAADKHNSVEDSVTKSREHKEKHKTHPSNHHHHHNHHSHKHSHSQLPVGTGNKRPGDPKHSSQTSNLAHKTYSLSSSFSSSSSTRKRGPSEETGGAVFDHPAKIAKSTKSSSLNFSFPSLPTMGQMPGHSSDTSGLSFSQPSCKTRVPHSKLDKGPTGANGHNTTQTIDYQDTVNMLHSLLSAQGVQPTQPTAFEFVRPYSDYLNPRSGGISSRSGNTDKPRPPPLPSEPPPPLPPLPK

Turning to `CN1CCC(n2nc(NCc3nc4cc(F)c(F)cc4[nH]3)c3ncc(C4CC4)nc32)CC1` [Example 30, 6-cyclopropyl-N-[(5,6-difluoro-1H-benzimidazol-2-yl)methyl]-1-(1-methylpiperidin-4-yl)-1H-pyrazolo[3,4-b]pyrazin-3-amine], the results for the IC50 (on CDK9/CyclinT1; in assay [1]; in assay [2]) were > 20000 nM, 11.7 nM and 13.4 nM, respectively.
For `CN1CCC(n2nc(NCc3nc4c(Cl)c(F)ccc4[nH]3)c3ncc(C4CC4)nc32)CC1` [Example 31, N-[(4-chloro-5-fluoro-1H-benzimidazol-2-yl)methyl]-6-cyclopropyl-1-(1-methylpiperidin-4-yl)-1H-pyrazolo[3,4-b]pyrazin-3-amine] the same measures were > 20000 nM, 4.99 nM and 7.09 nM.
Turning to `Fc1ccc2[nH]c(CNc3nn(C4CCOCC4)c4nc(C5CC5)cnc34)nc2c1F` [Example 32, 6-cyclopropyl-N-[(4,5-difluoro-1H-benzimidazol-2-yl)methyl]-1-(oxan-4-yl)-1H-pyrazolo[3,4-b]pyrazin-3-amine], the IC50 on CDK9/CyclinT1 is > 20000 nM; in assay [1] it was 29 nM; in assay [2], 2.12 nM.
In the same order, the values of `Cc1cccc2[nH]c(CNc3nn(C4CCOCC4)c4nc(C5CC5)cnc34)nc12` [Example 33, 6-cyclopropyl-N-[(4-methyl-1H-benzimidazol-2-yl)methyl]-1-(oxan-4-yl)-1H-pyrazolo[3,4-b]pyrazin-3-amine] are > 20000 nM, 16.9 nM and 22.5 nM.
In the same order, the values of `c1ccc2[nH]c(CNc3nn(C4CCCC4)c4nc(C5CC5)cnc34)nc2c1` [Example 39, N-[(1H-benzimidazol-2-yl)methyl]-1-cyclopentyl-6-cyclopropyl-1H-pyrazolo[3,4-b]pyrazin-3-amine] are > 20000 nM, 107 nM and 88.8 nM.
In the same order, the values of `O[C@H]1C[C@@H](n2nc(NCc3nc4ccccc4[nH]3)c3ncc(C4CC4)nc32)C1` [Example 40, cis-3-(3-{[(1H-benzimidazol-2-yl)methyl]amino}-6-cyclopropyl-1H-pyrazolo[3,4-b]pyrazin-1-yl)cyclobutan-1-ol] are > 20000 nM, 8.65 nM and 34.6 nM.
Consider `O[C@H]1C[C@H](n2nc(NCc3nc4ccccc4[nH]3)c3ncc(C4CC4)nc32)C1` [Example 43, trans-3-(3-{[(1H-benzimidazol-2-yl)methyl]amino}-6-cyclopropyl-1H-pyrazolo[3,4-b]pyrazin-1-yl)cyclobutan-1-ol], for which the IC50 on CDK9/CyclinT1 is > 20000 nM; in assay [1] it was 28.9 nM; in assay [2] it was 41.9 nM.
As to `c1ccc2[nH]c(CNc3nn(C4C[C@H]5CC[C@@H](C4)O5)c4nc(C5CC5)cnc34)nc2c1` (stereo partly drawn) [Example 45, exo/endo-N-[(1H-benzimidazol-2-yl)methyl]-6-cyclopropyl-1-(8-oxabicyclo[3.2.1]octan-3-yl)-1H-pyrazolo[3,4-b]pyrazin-3-amine], the values for the IC50 (at CDK9/CyclinT1; in assay [1]; in assay [2]) were > 20000 nM, 7.6 nM and 9.86 nM, respectively.
As for `OC[C@H]1C[C@H](n2nc(NCc3nc4ccccc4[nH]3)c3ncc(C4CC4)nc32)C1` [Example 46, [trans-3-(3-{[(1H-benzimidazol-2-yl)methyl]amino}-6-cyclopropyl-1H-pyrazolo[3,4-b]pyrazin-1-yl)cyclobutyl]methanol], the IC50 on CDK9/CyclinT1 is > 20000 nM; in assay [1], 4.02 nM; in assay [2], 20.1 nM.
In the same order, the values of `OC[C@H]1C[C@@H](n2nc(NCc3nc4ccccc4[nH]3)c3ncc(C4CC4)nc32)C1` [Example 47, [cis-3-(3-{[(1H-benzimidazol-2-yl)methyl]amino}-6-cyclopropyl-1H-pyrazolo[3,4-b]pyrazin-1-yl)cyclobutyl]methanol] are > 20000 nM, 13.8 nM and 27.5 nM.
Take `O[C@H]1CC[C@H](n2nc(NCc3nc4ccccc4[nH]3)c3ncc(C4CC4)nc32)CC1` [Example 50, trans-4-(3-{[(1H-benzimidazol-2-yl)methyl]amino}-6-cyclopropyl-1H-pyrazolo[3,4-b]pyrazin-1-yl)cyclohexan-1-ol]: the IC50 at CDK9/CyclinT1 is > 20000 nM; in assay [1], 17.5 nM; in assay [2], 11 nM.
For `Fc1ccc2[nH]c(CNc3nn(C4CCOCC4)c4nc(C5CC5)cnc34)nc2c1` [Example 53, 6-cyclopropyl-N-[(5-fluoro-1H-benzimidazol-2-yl)methyl]-1-(oxan-4-yl)-1H-pyrazolo[3,4-b]pyrazin-3-amine] the same measures were > 20000 nM, 10.9 nM and 19.7 nM.
In the same order, the values of `COC(C)(C)CCn1nc(NCc2nc3ccccc3[nH]2)c2ncc(C3CC3)nc21` [Example 67, N-[(1H-benzimidazol-2-yl)methyl]-6-cyclopropyl-1-(3-methoxy-3-methylbutyl)-1H-pyrazolo[3,4-b]pyrazin-3-amine] are > 20000 nM, 78 nM and 79.7 nM.
In the same order, the values of `O[C@H]1C[C@@H](Cn2nc(NCc3nc4ccccc4[nH]3)c3ncc(C4CC4)nc32)C1` [Example 71, cis-3-[(3-{[(1H-benzimidazol-2-yl)methyl]amino}-6-cyclopropyl-1H-pyrazolo[3,4-b]pyrazin-1-yl)methyl]cyclobutan-1-ol] are > 20000 nM, 3.01 nM and 52.4 nM.
Turning to `CC(C)(O)CCn1nc(NCc2nc3ccccc3[nH]2)c2ncc(C3CC3)nc21` [Example 76, 4-(3-{[(1H-benzimidazol-2-yl)methyl]amino}-6-cyclopropyl-1H-pyrazolo[3,4-b]pyrazin-1-yl)-2-methylbutan-2-ol], the IC50 was > 20000 nM on CDK9/CyclinT1, 7.4 nM in assay [1] and 55.7 nM in assay [2].
